In US8097608B2, “Methods for treatment of cardiovascular disorders and diseases” (Technion Research and Development Foundation Ltd., priority 2003, dated 2012):

Legend:
[1] = test system: neonatal rat ventricular myocytes; experiment: Doxorubicin-induced apoptosis in neonatal rat ventricular myocytes (caspase-3 cleavage); assay type: cell-based; conditions: 1 or 10 μM, added 24 hours before; 1 μM doxorubicin 24 hours
Procedure: In order to test whether propargylamine or S(−)—N-propargyl-1-aminoindan can prevent doxorubicin-induced apoptosis in cultured neonatal rat ventricular myocytes, these drugs (at a concentration of either 1 or 10 μM) were introduced to the culture medium 24 hours before the incubation (24 hours) with 1 μM doxorubicin.

[2] = test system: Bax, Bcl-2, PKC-ε in hearts of naïve rats; experiment: Anti-apoptotic and pro-apoptotic proteins in hearts of naive rats; assay type: in vivo, rat; conditions: 5 mg/kg/day orally for 21 days
Procedure: In this experiment we tested the effects of propargylamine and S(−)—N-propargyl-1-aminoindan on several key anti-apoptotic and pro-apoptotic proteins in hearts of naïve rats.
The drugs (5 mg/kg/day) were orally administered to rats for 21 days (n=4-6 rats in each group), and measurements were made after sacrifice. […] Furthermore, both propargylamine and S(−)—N-propargyl-1-aminoindan increased the expression of the key anti-apoptotic PKC-ε (FIGS. 9D-9E, respectively).

[3] = test system: neonatal rat ventricular myocytes; experiment: Fas-mediated hypertrophy in cultured neonatal rat ventricular myocytes (ANP mRNA, RT-PCR); assay type: cell-based; conditions: rFasL 24 hours; for ANP mRNA elevation induced by Fas activation: 10 μM, 3 experiments per drug
Procedure: In order to test whether rasagiline can prevent the marked hypertrophy induced in cultured neonatal rat ventricular myocytes (for methods, see Yaniv et al., 2002), Fas was activated for 24 hours by incubation with rFasL (10 ng/ml plus 1 μg/ml of the enhancer antibody). Hypertrophy was assessed by determining the mRNA levels (by means of RT-PCR) of the atrial natriuretic peptide (ANP), which is a most common molecular marker of hypertrophy. Rasagiline ([…]) was added to the culture 1 hour before Fas activation and remained in the medium throughout the 24 hours exposure to rFasL.
In order to test whether S(−)—N-propargyl-1-aminoindan and propargylamine have the same effect on marked hypertrophy induced in cultured neonatal rat ventricular myocytes, similar experiments were performed using either propargylamin or S(−)—N-propargyl-1-aminoindan (both at a concentration of 10 μM) instead of rasagiline.

[4] = test system: caspase-3 and cytochrome C in CHF rats; experiment: Caspase-3 and cytosolic cytochrome C in volume overload-induced CHF rats (AVF); assay type: in vivo, rat
Procedure: (§1) (v) Animals. Studies were conducted on male Sprague Dawley rats (Harlan Laboratories Ltd., Jerusalem, Israel), weighing ˜300 g. The animals were kept in a temperature-controlled room and maintained on standard rat diet (0.5% NaCl). All experiments were performed according to the guidelines of the Technion Committee for Supervision of Animal Experiments (Haifa, Israel). […] Sham-operated rats served as controls. Drugs (or saline as control) were orally administered, starting 7 days prior to surgery (day 0) and were continued for 21 days. Surgery was performed on day 7 and animals sacrified 14 days post-surgery (day 21). Cardiac function was determined by echocardiography on days 0, 10 (3 days post-surgery) and 21 (before sacrifice). After the last echocardiography measurement, rats were sacrified and hearts were analyzed.
Rats were treated as described in Materials and Methods hereinabove and volume overload was induced by surgical creation of an aortocaval fistula (AVF). Sham-operated rats served as controls. 14 days after induction of volume-overload, caspase-3 cleavage and cytosolic cytochrome C, both pro-apoptotic proteins, were analyzed.
In the following experiment we tested whether propargylamine or S(−)—N-propargyl-1-aminoindan can reduce CHF-induced increase in caspase-3 and cytochrome C. Rats were treated and drugs were administered (1 or 7.5 mg/kg/day S(−)—N-propargyl-1-aminoindan, or 5 mg/kg/day propargylamine) as described in Materials and Methods hereinabove.

naïve rats = experiment: Cardiovascular hemodynamic parameters in naive rats after IV bolus; assay type: in vivo, rat
Procedure: As the first step in testing the beneficial in vivo efficacy of the propargylamine derivatives on the cardiac function, we measured key cardiovascular hemodynamic parameters in control naïve rats, and in rats administered IV with a bolus of 1 mg/kg S(−)—N-propargyl-1-aminoindan, followed with a bolus of 10 mg/kg S(−)—N-propargyl-1-aminoindan (Sprague Dawley rats were used, n=3 rats in each group). Measurements were made at baseline, 30 minutes after each drug administration, and 1 hour (recovery) after drug administration.

H9c2 cells [5] = experiment: Fas-mediated (rFasL) apoptosis in H9c2 cells, DAPI staining; assay type: cell-based, rat; conditions: added 16 hours before and present throughout
Procedure: (§2) (ii) Cell Line H9c2. Experiments were performed on the embryonic rat heart cell line H9c2. H9c2 cells were cultured in DMEM (Biological Industries, Beit-Haemek, Israel) supplemented with 10% fetal calf serum (FCS), 50 units/ml penicillin G, 50 μg/ml streptomycin sulfate, 2 mg/ml L-glutamine and sodium pyruvate. H9c2 cells were harvested by trypsinization, washed with PBS, diluted to a concentration of 5×10^4 cells/ml with DMEM (high glucose) and cultured at 0.5 ml/well on sterile glass cover slips in 24-well plates.
(c) Activation of the Fas receptor—Fas activation was induced by incubating the cultures with recombinant human Fas Ligand (rFasL; 10 ng/ml) plus the enhancing antibody (1 μg/ml) for the indicated times, according to the manufacturer's recommendations (Alexis Biochemicals, San Diego, Calif.).
(§3) (iv) Determination of Apoptosis by DAPI. Cultures were counterstained with 4′, 6-diamidino-2-phenylindole (DAPI) to visualize the nuclear morphology.
Cultures of embryonic rat heart cell line H9c2 were incubated with rFasL (10 ng/ml) and an enhancing antibody for periods of time of 9, 10 and 24 hours, and apoptosis measured thereafter.
In order to determine whether rasagiline can prevent Fas-mediated apoptosis, the Fas receptor was activated for 9, 10 and 24 hours as described above. Rasagiline (10 μM) was introduced to the culture medium 16 hours before, and was present throughout the apoptosis-inducing protocol (n=3 wells).
Each one of the drugs, at a concentration of either 0.1 or 1.0 μM was introduced to the culture medium 16 hours before, and was presented throughout the apoptosis-inducing protocol (n=3 wells).

CHF rats = experiment: Echocardiography in volume overload-induced CHF rats (AVF); assay type: in vivo, rat; conditions: 7.5 mg/kg/day orally, 21 days from 7 days prior to surgery; for Reduction in fractional shortening: day 21 (14 days post-surgery)
Procedure: as §1
Rats were treated as described in Materials and Methods hereinabove and volume overload was induced by surgical creation of an aortocaval fistula (AVF). Drugs (7.5 mg/kg/day) were administered according to the protocol described above, starting 7 days prior to surgery (day 0) and during 21 days. Cardiac function was determined by echocardiography, from which two principle parameters, namely, diastolic area and systolic area, were calculated. These parameters were used for calculating the fractional shortening, which is an established measure of the ventricular contraction capacity, according to the equation: Fractional shortening =(diastolic area-systolic area)/diastolic area.

H9c2 cells [6] = experiment: Serum starvation-induced apoptosis in H9c2 cells, MTT staining assay; assay type: cell-based, rat; conditions: 0.1-10 μM; 0% FCS for 24 hours
Procedure: (§4) (b) Serum starvation—To induce apoptosis, H9c2 cultures were incubated in the culture medium containing 0% FCS for the indicated times.

[7] = test system: neonatal rat ventricular myocytes; experiment: Serum starvation-induced apoptosis in neonatal rat ventricular myocytes (caspase-3 cleavage, Bcl-2); assay type: cell-based; conditions: 0.1 μM, added 1 hour before; 0% FCS, 24 hours
Procedure: Caspase-3 is a protein of the cysteine-aspartic acid protease (caspase) family, known as a key pro-apoptotic protein and therefore as a common marker of apoptosis.
In order to test whether propargylamine can prevent serum starvation-induced apoptosis in cultured neonatal rat ventricular myocytes, we repeated the serum starvation protocol and 0.1 μM propargylamine was introduced to the culture medium 1 hour before serum starvation. As shown in FIGS. 6B-6C, propargylamine attenuated serum starvation-induced apoptosis in neonatal rat ventricular myocytes as indicated both by the drug-induced decrease in caspase 3 cleavage (FIG. 6B) and increase in the expression of mitochondrial Bcl-2, known as an anti-apoptotic protein (FIG. 6C).

H9c2 cells [8] = experiment: Serum starvation-induced apoptosis in H9c2 cells, DAPI staining; assay type: cell-based, rat
Procedure: as §2, §4, §3
The next apoptosis-inducing stimulus tested was serum starvation ([…], 0% serum in the culture medium). To induce apoptosis, H9c2 cells were incubated in the culture medium containing 0% FCS for 6, 7, 8 or 9 hours. Rasagiline (10 μM) was introduced to the culture medium 2 hours before inducing serum starvation and was present throughout the apoptosis-inducing protocol (n=3 wells).
In another experiment, we repeated the serum starvation protocol, and also tested in the same cultures whether rasagiline can protect against H2O2-induced apoptosis. Rasagiline was introduced to the culture medium 2 hours before inducing serum starvation or adding H2O2, and was present throughout the apoptosis-inducing protocol (n=4 experiments; ˜2000 cells counted).

[9] = 10 mg/kg IV bolus, 30 minutes after administration
[10] = 0.1 or 1.0 μM, ~10 hours incubation with rFasL (~10% apoptosis)

C#CCN[C@H]1CCc2ccccc21 [S(−)—N-propargyl-1-aminoindan]
Doxorubicin-induced apoptosis (caspase-3 cleavage) [1]: significantly attenuated
Expression of anti-apoptotic PKC-ε [2]: increased
ANP mRNA elevation induced by Fas activation [3]: completely blocked
CHF-induced increase in cytochrome C ([4]; 1 mg/kg/day orally for 21 days (FIG. 11B)): significantly reduced
CHF-induced increase in caspase-3 ([4]; 7.5 mg/kg/day orally for 21 days (FIG. 11A)): significantly reduced
Cardiac index (naïve rats; [9]): markedly increased
Cardiac output (naïve rats; [9]): markedly increased
Heart rate (naïve rats; [9]): did not affect
Mean arterial pressure (MAP) (naïve rats; [9]): did not affect
Reversibility of the effect on cardiac function (naïve rats; washout period (recovery, 1 hour after administration)): reversible
Fas-mediated apoptosis (H9c2 cells [5]; [10]): completely prevented
Reduction in fractional shortening (CHF rats): completely prevented
Hypertrophic increase in the diastolic area (CHF rats; days 10 and 21): completely prevented
Hypertrophic increase in the systolic area (CHF rats; days 10 and 21): completely prevented
Anti-apoptotic effect, serum starvation, MTT staining (H9c2 cells [6]): anti-apoptotic effect

C#CCN [propargylamine]
Doxorubicin-induced apoptosis (caspase-3 cleavage) [1]: significantly attenuated
Caspase 3 cleavage, serum starvation [7]: decrease
Expression of mitochondrial Bcl-2, serum starvation [7]: increase
Expression of anti-apoptotic PKC-ε [2]: increased
Expression of mitochondrial anti-apoptotic protein Bcl-2 [2]: markedly increased
Expression of mitochondrial pro-apoptotic protein Bax [2]: did not affect
Ratio Bcl-2/Bax [2]: marked increase
ANP mRNA elevation induced by Fas activation [3]: completely blocked
CHF-induced increase in caspase-3 ([4]; 5 mg/kg/day orally for 21 days): significantly reduced
CHF-induced increase in cytochrome C ([4]; 5 mg/kg/day orally for 21 days (FIG. 11B)): significantly reduced
Fas-mediated apoptosis (H9c2 cells [5]; [10]): completely prevented
Hypertrophic increase in the diastolic area (CHF rats; 14 days post-surgery): completely prevented
Hypertrophic increase in the systolic area (CHF rats; 14 days post-surgery): completely prevented
Reduction in fractional shortening (CHF rats): completely prevented

C#CCN[C@@H]1CCc2ccccc21 [rasagiline, R(+)—N-propargyl-1-aminoindan]
Fas-mediated hypertrophy (ANP mRNA) ([3]; 10 μM/ml, added 1 hour before, preliminary, data not shown): prevented Fas-mediated hypertrophy
Serum starvation-induced apoptosis (H9c2 cells [8]; 10 μM, added 2 hours before, 9 hrs serum starvation (12% apoptosis)): completely prevented
Anti-apoptotic effect, serum starvation (H9c2 cells [8]; 0.1-10 μM, added 2 hours before, 0% FCS for 24 hours): anti-apoptotic effect
Apoptosis induced by serum starvation (H9c2 cells [8]; Example 3, added 2 hours before, n=4 experiments): prevented
Fas-mediated apoptosis (H9c2 cells [5]; 10 μM, 10 hours incubation with rFasL (~20% apoptosis)): completely prevented
